Consider two compounds from US20150190456A1, “USE OF CASPASE 3 ACTIVITY AND ITS INHIBITORS” (THE REGENTS OF THE UNIVERSITY OF COLORADO, priority 2011, published 2015).

The test system of one assay is tumor cells. Description: Growth in mice of a small number of tumor cells pre-treated with PGE2. Type of assay: in vivo. As to conditions: about 1000 tumor cells treated with PGE2 versus non-treated cells. How it is done:
(§1) Growth of Fluc-labeled tumor cells in vivo was followed through non-invasive bioluminescence imaging using the IVIS200 instrument (Caliper Life Sciences, Hopkinton, Mass). Mice to be imaged were injected with 150 mg/kg of D-luciferin (obtained from Caliper Life Sciences) intraperitoneally in 200 μl of PBS and then anesthetized with continuous flow of isofluorane. Imaging of the mice was carried out 10 minutes later. The time between injection and imaging were kept constant among different batches of mice.
(§2) Different approaches were used to establish tumor growth than traditionally adopted by other studies. In most of the studies by the present inventors, a very small number of Fluc-labeled tumor cells (500-1000 cells each) was injected either alone or together with other unlabeled cells (either tumor cells or fibroblast cells) that are either irradiated or un-irradiated. Tumor growth from these cells was monitored through the quantification of bioluminescence signals emitted from labeled tumor cells using IVIS200 instrument following manufacturer's instructions. In some cases, 500-1000 Fluc labeled tumor cells were injected into (7-9 mm in diameter) tumors that have been established from unlabeled tumor cells.

In the next assay the test system is 4T1 cells. Kind of assay: Growth of tumor cells injected intratumorally into established tumors in mice, 4T1. Type of assay: in vivo, mouse. As to conditions: indomethacin administration. Here is the method: as §1
as §2, with “cells. […]” for “cells.”

The test system of the next assay is HCT116 cells. Kind of assay: Growth of tumor cells injected intratumorally into established tumors in mice, HCT116. Type of assay: in vivo, human. As to conditions: indomethacin administration. How it is done: as §1
as §2, with “cells. […]” for “cells.”

As to `CCCCC[C@H](O)/C=C/[C@H]1[C@H](O)CC(=O)[C@@H]1C/C=C\CCCC(=O)O` [PGE2, prostaglandin E2], in the assay on tumor cells, the “growth of treated tumor cells when injected into mice” value is given as “grow at a faster pace than non-treated cells”.
As for `COc1ccc2c(c1)c(CC(=O)O)c(C)n2C(=O)c1ccc(Cl)cc1` [indomethacin], the “growth of intratumorally injected 4T1 cells” value in the assay on 4T1 cells was “effectively suppressed growth”. Also, the “growth of intratumorally injected HCT116 cells” value in the assay on HCT116 cells is “effectively suppressed growth”.
